# From publication PMC7725506, “Functional Diversification of SRSF Protein Kinase to Control Ubiquitin-Dependent Neurodevelopmental Signaling” (Developmental Cell, 2020)
# Tested on: RNF12 SR-motif
# Assay: RNF12 SR-motif phosphorylation in mESCs by phos-tag immunoblotting
# Format: cell-based, mouse
# Conditions: 4 h
# Description: RNF12 4xSA = S212A/S214A/S227A/S229A. (B) Rlim^−^/y mESCs were transfected with the indicated RNF12 constructs and lysates treated with λ-phosphatase and analyzed by phos-tag immunoblotting for RNF12. Unphosphorylated recombinant RNF12 is included as a control. […] RNF12 4xSA is included as an unphosphorylated control. […] (F) Phosphorylated peptides detected by mass spectrometry following in vitro phosphorylation of RNF12 by SRPK1. pS, phospho-serine. (G) Autoradiography of RNF12 WT or S212A/S214A/S227A/S229A (4xSA) following a radioactive kinase reaction with SRPK1, SRPK2, or SRPK3. RNF12 protein is detected by Coomassie staining. (H) Srpk1^+/+ and Srpk1^−/− mESCs were transfected with control or SRPK2 siRNA and RNF12 SR-motif phosphorylation analyzed by phos-tag immunoblotting for RNF12. SRPK2, SRPK1, RNF12, and ERK1/2 levels were determined by immunoblotting. Related to Figure S2; Tables S3 and S4.
# All compounds were diluted in DMSO and mESCs treated with 10 μM inhibitor for 4 h prior lysis unless indicated otherwise. […] For proteasome inhibition mESCs were treated with 10 μM MG132 (Sigma Aldrich) for 6 h. All chemicals are listed in the Key Resource Table.
# Phos-tag analyses were performed by loading protein samples containing 10 mM MnCl2 in 8% polyacrylamide gels containing 50 μM Phos-tag reagent (MRC-PPU reagents and services) and 0.1 mM MnCl2. After electrophoresis, gels were washed three times for 10 mins in Transfer buffer (48 mM Tris, 39 mM Glycine, 20% Methanol) supplemented with 20 mM EDTA. Proteins were then transferred to Nitrocellulose membranes, blocked and probed with the indicated antibodies. All protein signals were quantified using Image Studio (LI-COR Biosciences) or Image Lab software (Bio-Rad). Primary antibodies are listed in the Key Resource Table. […]
# SR-motif phosphorylation of HA-immunoprecipitated RNF12 analysed by phos-tag immunoblotting.
# HA-RNF12 levels are shown as a control. Fully phosphorylated (4-P) and unphosphorylated (0-P) RNF12 SR-motif is indicated by open (○) and closed (●) circles respectively.
# Data are represented as mean ± S.D. (n=3). (C) RNF12 expressing mESCs were treated with 10 […]
# immunoblotting. HA-RNF12 and ERK1/2 levels are shown as a control. (D) RNF12 expressing […]
# 5 h (+ wash-out). RNF12 phosphorylation was analysed via phos-tag immunoblotting. ERK1/2 levels are shown as a loading control. (E) Multiple Srpk1-/- and Srpk2-/- mESC clones were […]
smiles,measurement,setting,value
CCc1cc2c(cc1-c1cccc(S(=O)(=O)F)c1)C(C)(C)c1[nH]c3cc(C#N)ccc3c1C2=O [SRPKIN-1],Ser214 phosphorylation of the high-mobility form of RNF12,"10 μM, HA-RNF12 immunoprecipitates, phos-tag and phospho-Ser214 multiplex immunoblot",completely dephosphorylated
same,concentration leading to RNF12 SR-motif de-phosphorylation (as low as),,1 µM
